In patent publication US8110703B2, “Retinoid derivative and pharmaceutical composition and use thereof” (Anhui Medical University, priority 2008, dated 2012):
Several values for one entry are separate records, joined by “and”; a condition that tells them apart may be missing. Equal values may be shown once. Marks after values point to notes of the source that are not given here.

Columns and labels:
Type in all cases: cell-based
A549 lung cancer cells = test: MTT cell growth and proliferation experiment, A549; set-up: key to Inhibition Rate: (control OD570 − test OD570)/control OD570, as fraction
Experimental: 1.1 Reagents 12 retinoic acid derivatives with the final concentrations of 1 ug/ml, 5 ug/ml and 10 ug/ml are synthesized by the Pharmaceutical College of Anhui Medical University using DMSO and anhydrous ethanol, separately packaged for storage at −20° C. and kept out of the light when used, and the final concentration of DMSO is less than 0.1%. MTT is purchased from Sigma Corp. The Coulter DNA detection kit is presented by the Central Lab of Anhui Provincial Hospital. AFP and γ-GT are provided by the Clinical Lab of No. 105 Hospital of PLA. Apoptosis-Hoechst staining kit is purchased from Beyotime Company.
1.2 Cell Culture A549, and HpeG2 cells are stored by our lab. Cell growth condition: DMEM (from GIBICO Company) culture solution is added with 10% of calf serum (purchased from the Hangzhou Sijiqing Biological Engineering Material Co., Ltd.) to culture in a cell culture incubator (37° C., 5% CO2) with saturated humidity.
1.3 Cell Growth and Proliferation Experiments MTT process is used. Cells in the logarithmic phase are picked and seeded on a 96-hole culture board with a cell concentration of 5×10^7/L. Each hole of the board is 200 ul. The next day after the adherence, the original solution is discarded, and the culture solution is added. The cells are divided into 1 ug/ml retinoic acid derivative groups, 5 ug/ml retinoic acid derivative groups, 10 ug/ml retinoic acid derivative groups, blank control groups, cell control groups, solvent control groups (1‰ DMSO and anhydrous ethanol) (17 in total) according to the concentrations thereof, incubated for 3d, added with MTT (5 g/L) of 20 ul/hole for incubation at 37° C. for 4 h. The original solution is carefully discarded and dried, and DMSO of 20 ul/hole is added to dissolve crystals, followed by vibrating for 10 min and determining the OD value at 570 nm. Each concentration is corresponding to 5 holes, and each group calculates the average of 3 experiments to calculate the inhibition rate to the cell growth according to the optical density (OD) average of each hole in each group and the following equation: inhibition rate %=(control hole OD570−experimental hole OD570)/control hole OD5700*100%. The process above is repeated for three times. The second experiment takes the maximum concentration (10 […]) for culture respectively for 1, 2, 3 and 7 days and repeat for three times.

A549 cells [1] = test: Cell cycle and apoptosis by flow cytometry, A549; details: A549, 10 μg/ml, 3 days
Experimental: 1.4 Detection of Cell Cycle and Apoptosis by Flow Cytometry A549 cells in the logarithmic phase are collected, regulated with the concentrations thereof to 8×10^7/L, inoculated in a 6-hole board, cultured in an incubator (37° C. and 5% CO2). After the cells are adhered, the culture solution is discarded, and a culture solution having drugs with the corresponding concentrations is added and divided into 10 μg/ml drug groups, 10 μg/ml fenretinide groups, cell control groups, solvent control groups (1‰ DMSO and anhydrous ethanol) (11 in total). After 3 days, each group of cells is normally digested, collected, blown into single cell suspension, washed by cold PBS twice, and re-suspend by 10 μl PBS. Fixing and member breaking agents and a PI staining solution are added according to the Coulter DNA detection kit and reacted with one another at the room temperature and out of light for 30 min for machine detection. Each sample detects 10000 cells and repeats for three times, and the data are analyzed by Analysis software for the ratio during the G0-G1, S and G2-M periods and the ratio of apoptotic cells.

A549 cells [2] = test: Differentiation index: CEA secretory volume of A549 cells; details: A549 culture supernatant, 10 ug/ml, 3 d, DMSO
Experimental: 1.6 Detection of Differentiation Index The cultured A549 cells are randomly divided into 6 10 μg/ml drug groups, cell control groups, solvent control groups (DMSO and ethanol) and 10 μg/ml fenretinide control groups (11 in total). The control groups and drug groups are cultured for 3 days to collect respective 3 tubes of cell culture solutions which are centrifugated at a speed of 4000 r/min for 5 min to take the supernatant and detect the CEA content of the kit by using enzyme kinetics and CEA detection.

NB4 cells = test: Cell cycle analysis by flow cytometer, NB4; set-up: S %: dose or concentration left out as unconfirmed; details: 72 h
Experimental: (§1) Retinoic acid derivatives and fenretinide are prepared as a storage solution of 10 mg/mL by anhydrous ethanol and stored at […] and kept out of light.
(§2) NB4 cells and K562 cells are inoculated with an initial concentration of 2*10^5/ml in the RPMI1640 culture solution having 10% of calf serum (FBS), 100 u/ml of penicillin, 100 Lg/ml of streptomycin and 2 mmol/L of glutamine for suspension culture (37° C., 5% CO2). Change the solution every 2-3 days.
(§3) For the cells above acted by the retinoic acid derivatives and fenretinide ([…]) for 72 h, about 10^6 of them are collected, washed by PBS twice, fixed by 70% of cold ethanol over 24 h, washed by PBS twice, added with 5 ug/ml of propidium iodide for staining and detected by a flow cytometer from which the data are analyzed and processed by the multi-cycle software.

HepG2 cells = test: Cell cycle and apoptosis by flow cytometry, HepG2; details: HepG2, flow cytometry
K562 cells = test: Cell cycle analysis by flow cytometer, K562; set-up: S %: dose or concentration left out as unconfirmed; details: 72 h
Experimental: as §1, §2, §3

In the case of CC1=C(/C=C/C(C)=C/C=C/C(C)=C/C(=O)Nc2cccc(C(F)(F)F)c2)C(C)(C)CCC1 [Example 3a-02, (3-trifluoromethylphenyl)-(all-trans)-3,7-dimethyl-9-(2,6,6-trimethyl-1-cyclohexen-1-yl)-2,4,6,8-nonatetraenoic acid amide], the “OD Value (x ± s)” value (A549 lung cancer cells; A549, MTT OD 570 nm, 1 ug/ml, 3 d, solvent DMSO (D)) is reported as 1.551 ± 0.083 and 1.517 ± 0.100, the “OD Value (x ± s)” value (A549 lung cancer cells; A549, MTT OD 570 nm, 5 ug/ml, 3 d, solvent DMSO (D)) is reported as 1.510 ± 0.193 and 1.357 ± 0.159 and the “OD Value (x ± s)” value (A549 lung cancer cells; A549, MTT OD 570 nm, 10 ug/ml, 3 d, solvent DMSO (D)) is reported as 1.296 ± 0.192 and 0.939 ± 0.040. The “OD Value (x ± s)” value (A549 lung cancer cells; A549, MTT time gradient, 10 ug/ml, 1 d) was 0.617 ± 0.072, the “Inhibition Rate” value (A549 lung cancer cells; A549, MTT time gradient, 10 ug/ml, 1 d, fraction) was 0.327 and the “OD Value (x ± s)” value (A549 lung cancer cells; A549, MTT time gradient, 10 ug/ml, 2 d) was 0.703 ± 0.025. For the same compound, the “Inhibition Rate” value (A549 lung cancer cells; A549, MTT time gradient, 10 ug/ml, 2 d, fraction) was 0.519, the “OD Value (x ± s)” value (A549 lung cancer cells; A549, MTT time gradient, 10 ug/ml, 3 d) was 0.229 ± 0.010 and the “Inhibition Rate” value (A549 lung cancer cells; A549, MTT time gradient, 10 ug/ml, 3 d, fraction) was 0.753. For the same compound, the “OD Value (x ± s)” value (A549 lung cancer cells; A549, MTT time gradient, 10 ug/ml, 7 d) was 0.106 ± 0.035, the “Inhibition Rate” value (A549 lung cancer cells; A549, MTT time gradient, 10 ug/ml, 7 d, fraction) was 0.949 and the “Inhibition Rate” value (A549 lung cancer cells; A549, MTT, 1 ug/ml, 3 d, solvent DMSO (D), given as fraction) was 0.169 and 0.187. The “Inhibition Rate” value (A549 lung cancer cells; A549, MTT, 5 ug/ml, 3 d, solvent DMSO (D), given as fraction) was 0.191 and 0.273, the “Inhibition Rate” value (A549 lung cancer cells; A549, MTT, 10 ug/ml, 3 d, solvent DMSO (D), given as fraction) was 0.305 and 0.497 and the “effect on the apoptosis of A549 cells (ranking in words)” value (A549 cells [1]) was “most greatly effects on the apoptosis of A549 cells”. The “Apoptosis Rate (%)” value (A549 cells [1]; PI flow cytometry) was 40.9%, the “G0-G1 (%)” value (A549 cells [1]; PI flow cytometry) was 35.1% and the “G2-M (%)” value (A549 cells [1]; PI flow cytometry) was 1.62%. For the same compound, the “S %” value (A549 cells [1]; PI flow cytometry) was 23.6%, the CEA (A549 cells [2]) was 2.8 µg/L and the G1 % (NB4 cells) was 45.83%. For the same compound, the G2 % (NB4 cells) was 2.87%, the S % (NB4 cells) was 51.30% and the “Apoptosis Rate (%)” value (HepG2 cells) was 30.2* %. The “G0-G1 (%)” value (HepG2 cells) was 40.3%, the “G2-M (%)” value (HepG2 cells) was 2.71% and the “S %” value (HepG2 cells) was 27.9%. The G1 % (K562 cells) was 39.7%, the G2 % (K562 cells) was 6.0% and the S % (K562 cells) was 54.2%.
